In general, IC50 refers to the concentration needed to halve the response being measured.

Counter-ions that a name gives are not always drawn. Where only a bound is given, the exact number is not on record here.

One assay deals with Hsp90. Nature of the assay: IC50 of compounds of the invention, Example B Method 2 (Tables 6-9). The conditions noted are these: Table 7; Her2 degradation / inhibition of Hsp90; Method 2: MV-4-11 cells, 72 hours, Cell Counting Kit-8; read-out: IC50. In kind it is cell-based, human. In general terms: Tetrazolium assays rely on reduction of a dye to a coloured formazan, in cell work by metabolically active cells.
Consider `CC(C)c1cc(-c2nnc(Nc3ccccc3)n2-c2ccc3c(ccn3C)c2)c(O)cc1O` [Compound 1a, 4-Isopropyl-6-[4-(1-methyl-1H-indol-5-yl)-5-phenylamino-4H-[1,2,4]triazol-3-yl]-benzene-1,3-diol], for which the IC50 is 1400 nM.

Turning to `CC(C)c1cc(-c2nnc(Nc3cccc(N)c3)n2-c2ccc3c(ccn3C)c2)c(O)cc1O` [Compound 6a, 4-(5-(3-aminophenylamino)-4-(1-methyl-1H-indol-5-yl)-4H-1,2,4-triazol-3-yl)-6-isopropylbenzene-1,3-diol], the half-maximal inhibitory concentration (IC50) came out at 2900 nM.

On to `CC(C)c1cc(-c2nnc(NC(=O)c3ccco3)n2-c2ccc3c(ccn3C)c2)c(O)cc1O` [Compound 15a, N-(5-(2,4-dihydroxy-5-isopropylphenyl)-4-(1-methyl-1H-indol-5-yl)-4H-1,2,4-triazol-3-yl)furan-2-carboxamide], for which the IC50 came to 1040 nM.

On to `CC(C)c1cc(-c2nnc(NC(=O)c3ccccc3)n2-c2ccc3c(ccn3C)c2)c(O)cc1O` [Compound 9a, N-(5-(2,4-dihydroxy-5-isopropylphenyl)-4-(1-methyl-1H-indol-5-yl)-4H-1,2,4-triazol-3-yl)benzamide], for which the IC50 came to 2600 nM.

With `CC(C)c1cc(-c2nnc(Nc3cccc(C(F)(F)F)c3)n2-c2ccc3c(ccn3C)c2)c(O)cc1O` [Compound 7a, 4-isopropyl-6-(4-(1-methyl-1H-indol-5-yl)-5-(3-(trifluoromethyl)phenylamino)-4H-1,2,4-triazol-3-yl)benzene-1,3-diol], the IC50 is > 5000 nM.

On to `CC(C)c1cc(-c2nnc(Nc3ccc4ncccc4c3)n2-c2ccc3c(ccn3C)c2)c(O)cc1O` [Compound 5a, 4-isopropyl-6-(4-(1-methyl-1H-indol-5-yl)-5-(quinolin-6-ylamino)-4H-1,2,4-triazol-3-yl)benzene-1,3-diol], for which the IC50 came to 680 nM.

For `CC(C)c1cc(-c2nnc(NC(=O)C3CCCC3)n2-c2ccc3c(ccn3C)c2)c(O)cc1O` [Compound 20a, N-(5-(2,4-dihydroxy-5-isopropylphenyl)-4-(1-methyl-1H-indol-5-yl)-4H-1,2,4-triazol-3-yl)cyclopentanecarboxamide], the concentration for half-maximal inhibition (IC50) was determined as 5920 nM.

As to `CC(C)c1cc(-c2nnc(NC(=O)c3ccc(F)c(F)c3)n2-c2ccc3c(ccn3C)c2)c(O)cc1O` [Compound 17a, N-(5-(2,4-dihydroxy-5-isopropylphenyl)-4-(1-methyl-1H-indol-5-yl)-4H-1,2,4-triazol-3-yl)-3,4-difluorobenzamide], the IC50 is 1680 nM.

On to `COc1cccc(Nc2nnc(-c3cc(C(C)C)c(O)cc3O)n2-c2ccc3c(ccn3C)c2)c1` [Compound 8a, 4-isopropyl-6-(5-(3-methoxyphenylamino)-4-(1-methyl-1H-indol-5-yl)-4H-1,2,4-triazol-3-yl)benzene-1,3-diol], for which the IC50 turned out to be 1800 nM.

In the case of `CC(C)c1cc(-c2nnc(NC(=O)C(F)(F)F)n2-c2ccc3c(ccn3C)c2)c(O)cc1O` [Compound 18a, N-(5-(2,4-dihydroxy-5-isopropylphenyl)-4-(1-methyl-1H-indol-5-yl)-4H-1,2,4-triazol-3-yl)-2,2,2-trifluoroacetamide], the IC50 came out at 3000 nM.

Still in this assay, the particulars now being: Table 8; Her2 degradation / inhibition of Hsp90; Method 2: MV-4-11 cells, 72 hours, Cell Counting Kit-8.
`CCNC(=O)Sc1nnc(-c2ccc(OC(=O)N(C)C)cc2OC(=O)N(C)C)n1-c1cccc2ccccc12` [Compound 6b, 4-(5-(ethylcarbamoylthio)-4-(naphthalen-1-yl)-4H-1,2,4-triazol-3-yl)-1,3-phenylene bis(dimethyl carbamate)]: the IC50 was > 100000 nM.

The assay is the same for the next values; noted with them: Table 8; Her2 degradation / inhibition of Hsp90; Method 2: MV-4-11 cells, 72 hours, Cell Counting Kit-8; read-out: IC50.
As to `CC(N)C(=O)Oc1cc(OC(=O)C(C)N)c(C(C)C)cc1-c1nn(C(=O)C(C)N)c(=O)n1-c1ccc2c(ccn2C)c1` (centres unmarked) [Compound 16b, 4-(1-(2-aminopropanoyl)-4-(1-methyl-1H-indol-5-yl)-5-oxo-4,5-dihydro-1H-1,2,4-triazol-3-yl)-6-isopropyl-1,3-phenylene bis(2-aminopropanoate) trihydrochloride], the concentration for half-maximal inhibition (IC50) is 56 nM.

Regarding `CCc1cc(-c2nnc(S)n2-c2cccc3ccccc23)c(OC(=O)c2ccccc2)cc1OC(=O)c1ccccc1` [Compound 4b, 4-ethyl-6-(5-mercapto-4-(naphthalen-1-yl)-4H-1,2,4-triazol-3-yl)-1,3-phenylene dibenzoate], the IC50 was > 2000 nM.

In the case of `CC(C)c1cc(-c2nnc(SSc3nnc(-c4cc(C(C)C)c(O)cc4O)n3-c3ccc(N(C)C)cc3)n2-c2ccc(N(C)C)cc2)c(O)cc1O` [Compound 7b, 6,6′-(5,6-disulfanediylbis(4-(4-(dimethylamino)phenyl)-4H-1,2,4-triazole-5,3-diyl))bis(4-isopropylbenzene-1,3-diol)], the IC50 was determined as 58 nM.

Take `COCCOc1ccc(-c2nnc(S)n2-c2cccc3ccccc23)c(O)c1` [Compound 5b, 2-(5-mercapto-4-(naphthalen-1-yl)-4H 1,2,4-triazol-3-yl)-5-(2-methoxyethoxy) phenol]: the IC50 came to 30000 nM.

Turning to `COCCC(=O)n1ccc2cc(-n3c(O)nnc3-c3cc(C(C)C)c(O)cc3O)ccc21` [Compound 11b, 3-(2,4-dihydroxy-5-isopropylphenyl)-4-(1-(3-methoxypropanoyl)-1H-indol-5-yl)-1H-1,2,4-triazol-5(4H)-one], the IC50 is < 100 nM.

Staying with this assay, now noted: Table 9; Her2 degradation / inhibition of Hsp90; Method 2: MV-4-11 cells, 72 hours, Cell Counting Kit-8; hydrochloride; read-out: IC50 Range.
Turning to `CC(C)c1cc(-c2nnc(O)n2-c2ccc(N(C)C)c(S(N)(=O)=O)c2)c(O)cc1O` [Compound 13d, 5-(3-(2,4-dihydroxy-5-isopropylphenyl)-5-hydroxy-4H-1,2,4-triazol-4-yl)-2-(dimethylamino)benzene sulfonamide hydrochloride], the IC50 was found to be 207 nM.

Staying with this assay, now noted: Table 9; Her2 degradation / inhibition of Hsp90; Method 2: MV-4-11 cells, 72 hours, Cell Counting Kit-8; read-out: IC50 Range.
Regarding `CC(C)c1cc(-c2nnc(S)n2-c2cccc(S(N)(=O)=O)c2)c(O)cc1O` [Compound 14d, 3-(3-(2,4-dihydroxy-5-isopropylphenyl)-5-mercapto-4H-1,2,4-triazol-4-yl)benzenesulfonamide], the IC50 stood at 336 nM.

`CC(C)c1cc(-c2nnc(O)n2-c2ccc(N(C)CCN(C)C)nc2)c(O)cc1O` [Compound 5d, 4-(4-(6-(N-(2-(dimethylamino)ethyl)-N-methylamino)pyridin-3-yl)-5-hydroxy-4H-1,2,4-triazol-3-yl)-6-isopropylbenzene-1,3-diol]: the IC50 amounted to 220 nM.

Turning to `CC(C)c1cc(-c2nnc(O)n2-c2ccc(N3CCOCC3)nc2)c(O)cc1O` [Compound 19d, 4-(5-hydroxy-4-(6-morpholinopyridin-3-yl)-4H-1,2,4-triazol-3-yl)-6-isopropylbenzene-1,3-diol], the IC50 was 49 nM.

With `CC(C)c1cc(-c2nnc(O)n2-c2ccc(N(C)C)nc2)c(O)cc1O` [Compound 6d, 4-(4-(6-(dimethylamino)pyridin-3-yl)-5-hydroxy-4H-1,2,4-triazol-3-yl)-6-isopropylbenzene-1,3-diol], the IC50 turned out to be 58 nM.

For `CC(C)c1cc(-c2nnc(O)n2-c2ccc(N(C)S(C)(=O)=O)cc2)c(O)cc1O` [Compound 17d, N-(4-(3-(2,4-dihydroxy-5-isopropylphenyl)-5-hydroxy-4H-1,2,4-triazol-4-yl)phenyl)-N-methylmethanesulfonamide], the IC50 stood at 85 nM.

As for `Cc1ccc(-n2c(O)nnc2-c2cc(C(C)C)c(O)cc2O)cc1S(=O)(=O)N(C)C` [Compound 11d, 5-(3-(2,4-dihydroxy-5-isopropylphenyl)-5-hydroxy-4H-1,2,4-triazol-4-yl)-N,N,2-trimethylbenzenesulfonamide], the IC50 stood at 93 nM.
